Assay results: paper PMC8344761 (Journal of Enzyme Inhibition and Medicinal Chemistry, 2021)
Where two headings read alike, the source gives them in different places.

Key:
[1] = system: Huh7 cells; experiment: Sphere formation assay; format: cell-based; details: Homo sapiens, Huh-7, 48 h drug treatment, 13 days culture, read-out: % Inhibition of sphere forming Huh7
Method: (§1) Sphere forming ability of Hep3B and Huh7 cells were examined after incubation with drugs for 48 h. Briefly, 3 × 10^3 cells which were pre-treated with or without drugs in prEGM media (Lonza, Basel, Switzerland) were seeded on an ultra-low adhering 24 well plate (Corning Incorporated Costar, Corning, NY). Twice a week, 500 µL of used medium was replaced with fresh prEGM media. At 13 days after plating, images of spheres were captured using Celloger Mini (Curiosis Inc., Seoul, South Korea). The number of spheroids over 50 µm in diameter was counted by using Image J software (National Institute of Health, Bethesda, MD).

[2] = system: Hep3B cells; experiment: Sphere formation assay; format: cell-based; details: Homo sapiens, 48 h drug treatment, 13 days culture, read-out: % Inhibition of sphere forming Hep3B
Method: as §1

[3] = molecular target: C-Raf (Homo sapiens, UniProt P04049); experiment: Raf kinase assay (Kinase HotSpot, Reaction Biology Corp.); format: biochemical; details: for inhibition at 1 µM: read-out: Inhibition (%) C-Raf
Method: (§2) Compounds were delivered into each Raf reaction, followed ∼20 min later by addition of a mixture of ATP and [γ-^33P-ATP] (specific activity approx. 500 cpm/pmol, concentration as required) to a final concentration of 10 µM. After incubation for 40 min at 25 °C, the reaction was stopped by the addition of a 3% phosphoric acid solution. Then, the reaction was spotted onto a P30 filtermat, and unbound phosphate was removed by washing three times for 5 min in 75 mM phosphoric acid and once in methanol prior to drying and scintillation counting. […] IC50 values and curve fits were obtained using Prism (GraphPad Software, La Jolla, CA).

[4] = system: Huh7 cells xenografted onto CAM; experiment: Huh7-xenografted CAM tumour model; format: in vivo, chick; details: 10 µM final concentration on CAM; Huh7 xenograft
Method: Cancer cell xenograft onto chick chorioallantoic membrane (CAM), an in vivo tumour model, was used to evaluate anti-tumour efficacy of compounds. Fertilised chicken eggs purchased from Byeolbichon Farm (Gyeongbuk, South Korea) were incubated at 37 °C with 55% relative humidity. On day 9 of egg incubation (embryonic day 9, E9), a small hole was made in the shell over the air sac after the selection of bifurcated vessels. Another hole was made on the broadside using a needle by applying negative pressure from the wider part, creating false air sac. Using a grinding wheel (Dremel, Racine, WI), a small window (1 cm^2) was created in the eggshell above the false air sac. For generation of xenograft CAM tumour model, Huh7 cells (1.5 × 10^6 cells/CAM) were inoculated on the CAM with or without test drugs (10 µM final concentration). On day 13 of egg incubation (E13), tumour tissues attached to CAM were resected from the embryo and harvested. Photographs of tumour as well as blood vessel branches were taken using optical microscope (Olympus Corporation, Tokyo, Japan). Tumour tissues were weighted and the number of vessel branch points within the tumour region was counted.

[5] = Cytotoxicity assay (MTT), normal cells; format: cell-based, human; details: human, mean ± SEM
Method: (§3) Hepatocellular carcinoma cell lines (HepG2, Huh7), human pancreatic ductal epithelial cell line (H6c7), and normal human colon cell line (CCD841) were obtained from the American Type Culture Collection (ATCC) (Manassas, VA, USA). Cells were cultured in DMEM/High Glucose media (Hep3B, Huh7, CCD841) or MEM/EBSS media (HepG2) containing 10% FBS, 100 IU/ml of penicillin and 100 µg/ml of streptomycin. H6c7 cells were cultured in keratinocyte serum free media supplemented with epidermal growth factor and bovine pituitary extract. Cells were maintained in 5% CO2 humidified atmosphere at 37 °C.
(§4) Cells were seeded in a 96-well plate and allowed to adhere for 24 h. Cells in low serum (1%)-containing medium were treated with drugs for 48 h. In case of H6c7 cells, cells in keratinocyte serum free media were treated with drugs for 48 h. Then, cell viability was measured using MTT assay. Optical density was measured at 540 nm using a Spectrostar Nano microplate reader (BMG LABTECH).

[6] = system: H6c7; experiment: Cytotoxicity assay (MTT), normal cells; format: cell-based, human; details: normal pancreatic ductal epithelial cell line, 48 h, mean ± SEM
Method: as §3, §4

[7] = system: CCD841; experiment: Cytotoxicity assay (MTT), normal cells; format: cell-based, human; details: normal colon epithelial cell line, 48 h, mean ± SEM
Method: as §3, §4

[8] = system: Hep3B; experiment: Cell proliferation assay (MTT); format: cell-based; details: Homo sapiens, 48 h, mean ± SEM of three independent experiments, read-out: Cancer cell proliferation IC50 Hep3B
Method: as §3
(§5) Cells were seeded in a 96-well plate and allowed to adhere for 24 h. The cells were serum starved in 1% serum containing medium for 12 h, and then treated with drugs in 10% serum-containing medium. After incubation for 48 h, cell proliferation was measured using MTT assay. Optical density was measured at 540 nm using a Spectrostar Nano microplate reader (BMG LABTECH GmbH, Ortenberg, Germany).

[9] = system: HepG2; experiment: Cell proliferation assay (MTT); format: cell-based; details: Homo sapiens, 48 h, mean ± SEM of three independent experiments, read-out: Cancer cell proliferation IC50 HepG2
Method: as §3, §5

[10] = system: Huh7; experiment: Cell proliferation assay (MTT); format: cell-based; details: Homo sapiens, Huh-7, 48 h, mean ± SEM of three independent experiments, read-out: Cancer cell proliferation IC50 Huh7
Method: as §3, §5

[11] = molecular target: T1, A-Raf (Homo sapiens, UniProt P10398); experiment: Raf kinase assay (Kinase HotSpot, Reaction Biology Corp.); format: biochemical; details: for inhibition at 1 µM: fixed concentration 1 μM, mean of two independent experiments
T1 sequence (P10398 1-606): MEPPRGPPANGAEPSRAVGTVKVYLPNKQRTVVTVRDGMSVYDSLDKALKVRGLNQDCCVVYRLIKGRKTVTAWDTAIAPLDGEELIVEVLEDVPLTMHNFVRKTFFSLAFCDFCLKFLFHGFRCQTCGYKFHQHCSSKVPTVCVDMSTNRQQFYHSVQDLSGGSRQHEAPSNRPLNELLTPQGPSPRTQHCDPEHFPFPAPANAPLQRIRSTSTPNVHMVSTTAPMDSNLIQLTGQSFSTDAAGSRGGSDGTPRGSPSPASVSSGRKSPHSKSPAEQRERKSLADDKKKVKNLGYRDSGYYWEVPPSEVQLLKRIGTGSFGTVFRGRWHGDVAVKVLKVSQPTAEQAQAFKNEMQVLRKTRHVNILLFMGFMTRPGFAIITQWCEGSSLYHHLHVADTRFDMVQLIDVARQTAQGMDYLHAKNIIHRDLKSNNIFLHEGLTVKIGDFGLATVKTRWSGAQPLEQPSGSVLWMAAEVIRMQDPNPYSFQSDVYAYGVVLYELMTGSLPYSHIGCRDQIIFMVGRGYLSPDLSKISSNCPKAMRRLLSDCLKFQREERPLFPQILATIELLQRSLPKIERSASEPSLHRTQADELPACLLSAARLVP
Method: as §2, with “After incubation for 40 min at 25 °C, the reaction was stopped by the addition of a 3% phosphoric acid solution.” left out

[12] = molecular target: B-Raf (V600E) (Homo sapiens, UniProt P15056, V600E); experiment: as above; format: biochemical
Method: as §2

[13] = molecular target: B-Raf (Homo sapiens, UniProt P15056); experiment: as above; format: biochemical
Method: as §2

[14] = molecular target: T2, VEGFR-2 tyrosine kinase (Homo sapiens, UniProt P35968); experiment: VEGFR-2 (KDR) kinase assay (ADP-glow); format: biochemical; details: fixed concentration 1 µM; read-out: inhibitory activity against VEGFR-2 tyrosine kinase
T2 construct: purchased Promega

[15] = CCD841 cells (normal colon epithelial cell line)
[16] = H6c7 cells (normal pancreatic ductal epithelial cell line)
[17] = fixed concentration 1 μM, mean of two independent experiments

Chain of C-Raf (P04049 whole entry): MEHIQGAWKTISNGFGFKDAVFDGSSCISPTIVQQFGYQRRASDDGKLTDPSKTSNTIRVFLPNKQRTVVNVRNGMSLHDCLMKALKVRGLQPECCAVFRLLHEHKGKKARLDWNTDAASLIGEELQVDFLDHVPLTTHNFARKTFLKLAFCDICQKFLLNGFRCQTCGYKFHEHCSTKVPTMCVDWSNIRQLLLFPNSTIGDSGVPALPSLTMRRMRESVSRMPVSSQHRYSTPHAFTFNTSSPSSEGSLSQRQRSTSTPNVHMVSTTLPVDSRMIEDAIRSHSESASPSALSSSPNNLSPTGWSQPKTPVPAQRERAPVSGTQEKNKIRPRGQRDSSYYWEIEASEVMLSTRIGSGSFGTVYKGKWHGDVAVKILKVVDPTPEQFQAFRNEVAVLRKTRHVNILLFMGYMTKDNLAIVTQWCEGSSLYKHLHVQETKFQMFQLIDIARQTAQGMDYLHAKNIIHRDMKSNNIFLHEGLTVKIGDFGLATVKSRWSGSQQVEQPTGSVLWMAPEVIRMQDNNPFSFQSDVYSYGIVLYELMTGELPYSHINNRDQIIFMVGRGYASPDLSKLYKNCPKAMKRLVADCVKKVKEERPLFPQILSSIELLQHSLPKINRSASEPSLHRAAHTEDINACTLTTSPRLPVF
Chain of B-Raf (P15056 whole entry): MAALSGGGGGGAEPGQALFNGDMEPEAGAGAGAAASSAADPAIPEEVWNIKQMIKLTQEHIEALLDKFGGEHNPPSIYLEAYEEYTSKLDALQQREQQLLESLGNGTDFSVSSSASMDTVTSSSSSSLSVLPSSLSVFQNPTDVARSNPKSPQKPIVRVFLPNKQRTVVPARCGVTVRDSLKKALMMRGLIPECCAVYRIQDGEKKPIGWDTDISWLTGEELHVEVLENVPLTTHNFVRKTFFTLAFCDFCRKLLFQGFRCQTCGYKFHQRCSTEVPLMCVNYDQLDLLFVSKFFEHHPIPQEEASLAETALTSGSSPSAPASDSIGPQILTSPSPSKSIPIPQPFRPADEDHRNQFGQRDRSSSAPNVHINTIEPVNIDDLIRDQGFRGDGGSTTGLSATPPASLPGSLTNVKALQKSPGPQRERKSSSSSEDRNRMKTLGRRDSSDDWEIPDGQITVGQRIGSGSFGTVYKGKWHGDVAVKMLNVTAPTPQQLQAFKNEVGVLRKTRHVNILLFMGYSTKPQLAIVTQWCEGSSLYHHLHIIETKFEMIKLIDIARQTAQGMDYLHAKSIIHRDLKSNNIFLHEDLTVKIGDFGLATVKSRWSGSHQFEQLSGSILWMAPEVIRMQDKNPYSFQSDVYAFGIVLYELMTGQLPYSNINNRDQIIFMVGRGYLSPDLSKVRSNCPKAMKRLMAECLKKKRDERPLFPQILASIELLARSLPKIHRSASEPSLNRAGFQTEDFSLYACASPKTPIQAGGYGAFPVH
Chain of B-Raf (V600E) (P15056 whole entry V600E): as the sequence (P15056 whole entry) above, with V600E counted along it
T2 sequence (P35968 20-1356): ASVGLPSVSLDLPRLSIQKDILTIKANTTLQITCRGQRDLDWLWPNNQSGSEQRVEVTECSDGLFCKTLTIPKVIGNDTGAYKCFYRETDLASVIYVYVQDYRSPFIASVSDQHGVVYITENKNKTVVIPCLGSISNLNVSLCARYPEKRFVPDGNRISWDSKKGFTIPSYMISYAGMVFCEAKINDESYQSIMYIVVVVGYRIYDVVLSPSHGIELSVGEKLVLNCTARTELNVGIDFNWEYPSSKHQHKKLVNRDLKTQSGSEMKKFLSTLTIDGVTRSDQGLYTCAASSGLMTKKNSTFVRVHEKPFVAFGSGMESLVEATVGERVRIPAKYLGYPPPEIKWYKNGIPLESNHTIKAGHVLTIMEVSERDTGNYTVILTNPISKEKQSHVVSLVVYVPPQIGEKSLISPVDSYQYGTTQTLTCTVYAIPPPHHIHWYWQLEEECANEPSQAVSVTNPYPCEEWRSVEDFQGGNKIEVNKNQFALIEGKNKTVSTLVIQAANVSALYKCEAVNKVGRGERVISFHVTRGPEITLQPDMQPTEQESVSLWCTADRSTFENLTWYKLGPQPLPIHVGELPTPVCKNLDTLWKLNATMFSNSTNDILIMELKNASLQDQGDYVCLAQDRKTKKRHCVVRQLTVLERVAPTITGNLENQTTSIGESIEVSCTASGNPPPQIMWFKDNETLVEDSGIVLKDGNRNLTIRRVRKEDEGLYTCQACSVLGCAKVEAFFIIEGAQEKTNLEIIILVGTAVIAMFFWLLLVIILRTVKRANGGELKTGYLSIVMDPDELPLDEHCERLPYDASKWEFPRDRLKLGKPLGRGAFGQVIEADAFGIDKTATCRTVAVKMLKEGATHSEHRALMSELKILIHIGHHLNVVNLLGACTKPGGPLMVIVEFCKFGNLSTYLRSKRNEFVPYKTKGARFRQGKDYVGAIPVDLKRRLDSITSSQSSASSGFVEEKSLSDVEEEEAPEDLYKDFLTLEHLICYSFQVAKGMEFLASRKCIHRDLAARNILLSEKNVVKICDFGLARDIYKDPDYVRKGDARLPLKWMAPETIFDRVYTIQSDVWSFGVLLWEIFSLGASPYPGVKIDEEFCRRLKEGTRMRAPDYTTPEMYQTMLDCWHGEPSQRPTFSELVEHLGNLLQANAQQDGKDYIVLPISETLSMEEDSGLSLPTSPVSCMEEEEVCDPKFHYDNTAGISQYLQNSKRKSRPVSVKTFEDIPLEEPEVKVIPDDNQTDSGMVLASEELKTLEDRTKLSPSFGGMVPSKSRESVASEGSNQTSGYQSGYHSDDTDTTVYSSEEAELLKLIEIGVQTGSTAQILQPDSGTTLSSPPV

Compound | inhibition at 1 µM [1] [%] | inhibition at 10 µM [1] [%] | inhibition at 1 µM [2] [%] | inhibition at 10 µM [2] [%] | CC50 at 48 h [5, 15] [µM] | CC50 at 48 h [5, 16] [µM] | IC50 [8] [µM] | IC50 [9] [µM] | IC50 [10] [µM] | inhibition at 1 µM [11] [%] | also measured
CNC(=O)c1cc(Oc2ccc(NC(=O)Nc3ccc(Cl)c(C(F)(F)F)c3)cc2)ccn1 [Sorafenib, reference compound] | 59.7 | 85.9 | 43.6 | 56.4 | ~4.1 | ~4.4 | 1.22 ± 0.05 | 1.29 ± 0.02 | 1.17 ± 0.04 | 93.7 | inhibition at 1 µM [3]: 97.6%; inhibition of tumour-induced angiogenesis (new vessel branches) [4]: significantly blocked; CC50 [6]: 4.36 ± 0.21 µM; CC50 [7]: 4.08 ± 0.58 µM
CNC(=O)c1cc(Oc2c(C)nc(NC(=O)Nc3cccc(C(F)(F)F)c3)c(C)c2C)ccn1 [Compound 6, N-Methyl-4-((2,4,5-trimethyl-6–(3-(3-(trifluoromethyl)phenyl)ureido)pyridin-3-yl)oxy)picolinamide] | 23.8 | 44.2 | 38.3 | 55.6 | > 10 | > 10 | 6.49 ± 0.12 | 5.02 ± 0.06 | 4.77 ± 0.09 | 84.6 | inhibition at 1 µM ([12]; fixed concentration 1 μM, mean of two independent experiments, B-Raf (V599E)): 88.2%; IC50 ([12]; mean ± SD of two independent experiments, read-out: In vitro Raf kinase inhibition IC50 B-Raf(V600E)): 0.07 ± 0.0004 µM; inhibition at 1 µM [3, 17]: 92.5%; IC50 ([3]; mean ± SD of two independent experiments, read-out: In vitro Raf kinase inhibition IC50 C-Raf): 0.022 ± 0.0008 µM; inhibition at 1 µM [13, 17]: 65%; IC50 ([13]; mean ± SD of two independent experiments, read-out: In vitro Raf kinase inhibition IC50 B-Raf): 0.216 ± 0.0436 µM; inhibition at 1 µM [14]: ~-6%; melting point: 244 °C; IC50 ([11]; mean ± SD of two independent experiments, read-out: In vitro Raf kinase inhibition IC50 A-Raf): 0.057 ± 0.0086 µM
